Test results: patent publication US20180267019A1, “USE OF PEPTIDE HYDROGEL SCAFFOLDS FOR THREE-DIMENSIONAL THROUGHPUT DRUG DISCOVERY” (UNIVERSITY OF DELAWARE, priority 2015, published 2018)

How the values were obtained:
medulloblastoma cells [1] = test: DMSO tolerance of medulloblastoma cells in hydrogel-cell constructs, 384-well plate; type: cell-based, human
Procedure: Unless noted otherwise, cell viability assays were performed in 384-well plates using the RealTime-Glo™ MT Cell Viability Assay from Promega. For each experiment two stock solutions were prepared. For the first solution, 50 mM HEPES (pH 7.4) buffer was mixed with 0.5 wt % MAX8 (5 mg MAX8 per mL buffer solution for a final 0.25 wt % MAX8 hydrogel construct). The second solution was a cell solution with 11×10^6 per mL of medulloblastoma cells in serum-free DMEM. The two stock solutions were thoroughly mixed 1:1 to create a cell/gel mixture and 4 μL of the mixture was added per well to a white 384 well assay plate (Corning) containing 41 μL culture medium per well. The cells were allowed to equilibrate for 24 hours before any luminescence was determined. […] The plate was incubated for 60 minutes at 37 C and the luminescence was measured using an Envision Multilevel Reader (Perkin Elmer).
Owing to its unique shear force properties, MAX8-medulloblastoma cell constructs were dispensed at room temperature into 384-well plates (2,000 cells in 4 μL of hydrogel) (Brandtech) with 50 μL of culture medium (DMEM with serum) using a BioTek microplate dispenser. […] 10 μL of the intermediate drug media was then added to the QC plates, and following 48 h of cell culture the cell viability was measured using RealTime-Glo and the previously described method.

medulloblastoma cells [2] = test: Treatment of MAX8-RGDS-encapsulated medulloblastoma cells and 2D monolayers with vismodegib, cell viability; type: cell-based, human; settings: MAX8-RGDS 3D constructs vs 2D monolayers, 48 hours, FIG. 3B
Procedure: Vismodegib was added into the surrounding tissue culture medium of MAX8 hydrogel-cell constructs after 24 hours of cell seeding at the indicated concentrations. To limit the exposure of cultured cells to dimethyl sulfoxide (DMSO) from stock solutions of test compounds, 3.5 μL of stock solution was diluted in 1 mL of culture medium and then 20 μL of this solution was added to each well using the Janus workstation (PerkinElmer). Following 48 hours of cell culture the cell viability was measured as previously described using RealTime-Glo with a final concentration of 1×.

[3] = tested on: human medulloblastoma cells; test: RealTime-Glo cell viability of medulloblastoma cells encapsulated in MAX8 hydrogel-cell constructs; type: cell-based
Procedure: (§1) Human medulloblastoma cells were propagated in Dulbecco's […] Media (DMEM) supplemented with 10% fetal bovine serum and penicillin-streptomycin-glutamine at 37° C. and 5% CO2 using standard 2D cell culture protocols and tissue-culture treated plastic cell ware. For isolation of primary cerebellar granule precursor (CGP) cells, the cerebellum was dissected from P4-6 pups of C57BL/6 mice and dissociated into single cells using the Papain Dissociation System kit (Worthington Biochemical Corp, Freehold, N.J.). After filtering through a nylon mesh (70 μm pore size), the cells were briefly centrifuged and resuspended in Neurobasal medium supplemented with […] and B27.
In general and unless otherwise indicated, MAX8-cell constructs were prepared as 0.25 wt % MAX8 hydrogels. First, the peptide was dissolved in 50 mM HEPES buffer (pH 7.4) ([…] of hydrogel) and then an equal volume of single cell suspension in DMEM was added and gently mixed. Mixing the MAX8 solution with the culture medium triggers the intramolecular folding of the peptide, resulting in self-assembly into a hydrogel. For additional hydrogels with different concentrations of MAX8, the amount of peptide was adjusted but otherwise the same hydrogel assembly protocol was followed. The same procedures were followed when functionalized MAX8 was used to prepare hydrogel-cell constructs.
Unless noted otherwise, cell viability assays were performed in 384-well plates using the RealTime-Glo™ MT Cell Viability Assay from Promega. For each experiment two stock solutions were prepared. For the first solution, 50 mM HEPES (pH 7.4) buffer was mixed with 0.5 wt % MAX8 (5 mg MAX8 per mL buffer solution for a final 0.25 wt % MAX8 hydrogel construct). The second solution was a cell solution with 11×10^6 per mL of medulloblastoma cells in serum-free DMEM. The two stock solutions were thoroughly mixed 1:1 to create a cell/gel mixture and 4 μL of the mixture was added per well to a white 384 well assay plate (Corning) containing 41 μL culture medium per well. The cells were allowed to equilibrate for 24 hours before any luminescence was determined. 10× RealTime-Glo was added in 5 μL of media to each well already containing 45 μL to a final concentration of 1×. For cell viability assays in 96-well plates, the following volumes were used. 74 μL of DMEM cell media containing serum was added to each well, 16 μL of the previously mentioned 0.25 wt % MAX8 cell/gel construct was then added to each well. 10 μL of 10× RealTime-Glo was added to the wells for a final concentration of 1×. The plate was incubated for 60 minutes at 37 C and the luminescence was measured using an Envision Multilevel Reader (Perkin Elmer).

[4] = Hydrogel material properties (oscillatory rheology, gelation); type: physicochemical
Procedure: Rheology measurements were performed on an AR G2 rheometer (TA instruments) with a 20 mm stainless steel parallel plate geometry. […] Dynamic time sweep experiments (DTS) were performed to monitor the storage (G′) and loss (G″) modulus as a function of time (6 rad/s frequency, 0.2% strain) for 60 min. For shear-thinning experiments, the samples were subjected to 500 s^−1 steady-state shear for 60 s after which oscillatory measurement was performed at 6 rad/s frequency, 0.2% strain. Subsequently, recovery of the storage (G′) and loss (G″) modulus as a function of time was monitored for 30 min. Dynamic frequency (0.1-100 rad/s frequency, 1.0% strain) sweep experiments were performed to establish the frequency response of the samples. All measurements were performed in triplicates.

[5] = tested on: primary cerebellar granule precursors (CGPs); test: RealTime-Glo cell viability of primary cerebellar granule precursor cells encapsulated in MAX8; type: cell-based, C57BL/6 mice; settings: 0.5 wt % MAX8, RealTime-Glo, FIG. 2B
Procedure: as §1
In general and unless otherwise indicated, MAX8-cell constructs were prepared as 0.25 wt % MAX8 hydrogels. First, the peptide was dissolved in 50 mM HEPES buffer (pH 7.4) ([…] of hydrogel) and then an equal volume of single cell suspension in DMEM was added and gently mixed. […]
Unless noted otherwise, cell viability assays were performed in 384-well plates using the RealTime-Glo™ MT Cell Viability Assay from Promega. […] The cells were allowed to equilibrate for 24 hours before any luminescence was determined. […] The plate was incubated for 60 minutes at 37 C and the luminescence was measured using an Envision Multilevel Reader (Perkin Elmer).

[6] = 0.5 wt % hydrogel, RealTime-Glo, FIG. 2C

Compound: C[S+](C)[O-] [DMSO, dimethyl sulfoxide]
- DMSO concentration at which medulloblastoma cells were viable (medulloblastoma cells [1]): up to 1%

Compound: CS(=O)(=O)c1ccc(C(=O)Nc2ccc(Cl)c(-c3ccccn3)c2)c(Cl)c1 [vismodegib]
- sensitivity (dose response of cell viability), monolayers vs hydrogel cultures (medulloblastoma cells [2]): shift in dose response curves between monolayers and hydrogel cultures

Compound: IKVAVVKVKVKVK-(V^DPPT)-KVEVKVKV-NH2 [MAX8-IKVAV]
- proliferation of medulloblastoma cells when compared to MAX8 [3, 6]: increased the proliferation

Compound: RGDSVKVKVKVK-(V^DPPT)-KVEVKVKV-NH2 [MAX8-RGDS]
- proliferation of medulloblastoma cells encapsulated in cell constructs, over native MAX8 [3, 6]: 1.4 fold

Compound: VKVKVKVK-(V^DPPT)-KVEVKVKV-NH2 [MAX8]
- viability of medulloblastoma cells within MAX8-cell constructs ([3]; 0.25 or 0.5 wt % MAX8, RealTime-Glo, FIG. 2A): viable for several days
- cell proliferation as a function of MAX8 concentration ([3]; 0.25 vs 0.5 wt % MAX8, FIG. 2A): cell proliferation decreased with increasing MAX8 concentrations
- stiffness of the hydrogel ([4]; controllable by weight percent of the peptide): around 1000 Pa
- gelation time ([4]; room temperature, physiological salt concentration and pH): gelates within a minute
- viability of primary CGPs within MAX8-cell constructs [5]: viable for several days

Compound: YIGSRVKVKVKVK-(V^DPPT)-KVEVKVKV-NH2 [MAX8-YIGSR]
- proliferation of medulloblastoma cells when compared to MAX8 [3, 6]: increased the proliferation
